The values that follow come from ChEMBL document CHEMBL1201862, “PubChem BioAssay data set” (2004).

One may read the GI50 as the concentration at which growth is held to half of that of the control.

Test systems include SK-MEL-2; SF-295; EKVX; SK-OV-3; Hs-578T; LOX IMVI; CCRF-CEM; MDA-N; 786-0; SR; SF-268; K562; MDA-MB-231; ACHN; SK-MEL-5; NCI-H522; M14; RPMI-8226; SW-620.
Assay in all cases: DTP human tumour cell line panel, 48 h

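48-hour exposure; five concentrations; linearly interpolated endpoints. GI50: concentration for 50% inhibition of growth.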 Active and inactive are the calls of the source. Cut-off read from the data, not from the text of the source: active = GI50 up to about 1.1 µM and inactive = higher.

`CN(C)/C=N/Cc1ccc2c(c1)OCO2`: the GI50 in the experiment on SK-MEL-2, with SF-295, in the experiment on EKVX, in the experiment on SK-OV-3, in the experiment with Hs-578T and in the experiment with LOX IMVI was > 100 µM (inactive) throughout. The GI50 with CCRF-CEM, with MDA-N, with 786-0, with SR, in the experiment on SF-268 and in the experiment with K562 was > 100 µM (inactive) in each case. Moreover, the GI50 in the experiment on MDA-MB-231, with ACHN, in the experiment on SK-MEL-5, in the experiment on NCI-H522, with M14 and in the experiment with RPMI-8226 was > 100 µM (inactive) in each case. For the same molecule, in the experiment on SW-620, the GI50 was > 100 µM (inactive).
Consider `Oc1ccc2ccccc2c1/N=N\c1cccc2ccccc12`, for which the GI50 was > 100 µM (inactive) with SK-MEL-2; > 100 µM (inactive) in the experiment with SF-295; 36 µM (inactive) with EKVX; > 100 µM (inactive) with SK-OV-3; > 100 µM (inactive) in the experiment with Hs-578T; > 100 µM (inactive) in the experiment on LOX IMVI. For the same molecule, the GI50 was 58.1 µM (inactive) in the experiment with CCRF-CEM; > 100 µM (inactive) in the experiment on MDA-N; > 100 µM (inactive) in the experiment with 786-0; < 0.01 µM (active) in the experiment with SR; > 100 µM (inactive) in the experiment on SF-268; > 100 µM (inactive) in the experiment with K562. In addition, the GI50 in the experiment with MDA-MB-231 is > 100 µM (inactive); in the experiment on ACHN, > 100 µM (inactive); in the experiment with SK-MEL-5 it was > 100 µM (inactive); with NCI-H522 it was 82.6 µM (inactive); with M14 it was 95.9 µM (inactive); with RPMI-8226 it was > 100 µM (inactive). In addition, the GI50 in the experiment with SW-620 was > 100 µM (inactive).
For `CC12OC1(C)C1C(=O)OCC1C2=O` (centres undefined), the GI50 in the experiment on SK-MEL-2 is 50.5 µM (inactive); in the experiment on SF-295, 83.8 µM (inactive); with SK-OV-3 it was > 100 µM (inactive); in the experiment on Hs-578T, 22.1 µM (inactive); in the experiment with LOX IMVI, > 100 µM (inactive); in the experiment with CCRF-CEM it was 17.5 µM (inactive). Further, the GI50 in the experiment on MDA-N was > 100 µM (inactive); in the experiment on 786-0, 70 µM (inactive); in the experiment with SR it was 21 µM (inactive); in the experiment on SF-268, 37.8 µM (inactive); in the experiment on K562, 28.2 µM (inactive); with MDA-MB-231, > 100 µM (inactive). Moreover, the GI50 is 62.1 µM (inactive) with ACHN; > 100 µM (inactive) in the experiment on SK-MEL-5; 14.7 µM (inactive) in the experiment on NCI-H522; 49.4 µM (inactive) in the experiment with M14; > 100 µM (inactive) in the experiment with RPMI-8226; 45.9 µM (inactive) in the experiment with SW-620.
On to `O=C(O)[C@@H]1CSCN1C(=O)[C@@H]1CCC(=S)N1`, for which the GI50 in the experiment on SK-MEL-2, in the experiment on SF-295, in the experiment with SK-OV-3, in the experiment on Hs-578T, with LOX IMVI and in the experiment with CCRF-CEM was > 100 µM (inactive) throughout. In addition, the GI50 with MDA-N, in the experiment with 786-0, in the experiment with SR, with SF-268, with K562 and in the experiment with MDA-MB-231 was > 100 µM (inactive) in each case. The GI50 in the experiment with ACHN, in the experiment with SK-MEL-5, in the experiment with NCI-H522, in the experiment with M14, in the experiment on RPMI-8226 and in the experiment with SW-620 was > 100 µM (inactive) throughout.
